# Results from patent publication US11884747B2, “Compstatin analogs with increased solubility and improved pharmacokinetic properties” (The Trustees of the University of Pennsylvania, priority 2018, dated 2024).
# Several values for one entry are separate records, joined by “and”; a condition that tells them apart may be missing. Equal values may be shown once. Entries after “also recorded” stand apart in the source; their conditions may differ. Read-outs that look alike come from different tables or passages of the source. Marks after values point to notes of the source that are not given here.
# Experiments:
# [1] = Pharmacokinetics after single i.v. injection; assay type: in vivo, cynomolgus monkeys
# Experimental: FIG. 11 show graphs of peptide concentration over time in cynomolgus monkeys to which was administered a single 2 mg/kg intravenous injection of Cp40-KK (panel a), Cp40-KKK (panel b), mPEG(1 k)-Cp40 (panel c), and mPEG(3 k)-Cp40 (panel d). […]
# In vivo pharmacokinetic studies were conducted, in which cynomolgus monkeys were administered single i.v. injections of mPEG(1 k)-Cp40, mPEG(3 k)-Cp40, Cp40-KK, or Cp40-KKK.
# [2] = Pharmacokinetics in NHP plasma after single s.c. injection, with plasma C3 levels
# [3] = Residence time in the vitreous after single intravitreal injection (WES and SPR competition assay); assay type: in vivo, cynomolgus monkeys
# Experimental: To determine the residence time of mPEG(3 k)-Cp40, mPEG(1 k)-Cp40, Cp40-KK, and Cp40-KKK in the vitreous of cynomolgus macaques, these Cp40-based analogs were administered intravitreally (i.v.t.) to the animals after induction of light ketamine anesthesia (10-15 mg/kg, by intramuscular injection (i.m.)) and dilation of the pupils with tropicamide/phenylephrine ophthalmic solution (see Table 6 for study design).
# For i.v.t. injection, the cynomolgus monkeys were anesthetized with a combination of ketamine (15-25 mg/kg, i.m.) and xylazine (2 mg/kg, i.m.) and the eye was cleaned with povidone-iodine solution. After application of oxybuprocaine hydrochloride solution (Benoxil® ophthalmic solution 0.4%) to the cornea as a local anesthetic, the Cp40-based analogs were administered to the animals by i.v.t. injection into either the right (G1, G3) or left (G2, G4) eye of each animal. Immediately following each injection, a single topical dose of 0.5% levofloxacin was administered. After i.v.t. injection of mPEG(3 k)-Cp40, mPEG(1 k)-Cp40, Cp40-KK, and Cp40-KKK, vitreous fluid samples (about 50 μL each) were withdrawn from Cp40-based analog-treated eyes on days 14, 28, 42, (G1, G2, G3, G4), 56, 73, 90 (G1, G2) (this was done either three times or six times). Samples were collected on ice and stored in a deep freezer (˜79.3 to −68.5° C.) until further analysis. […] Presence and concentration of the Cp40-based analogs was determined using either the simple western technology (WES, ProteinSimple, San Jose, CA), or surface plasmon resonance (SPR)-based real-time measurement of binding kinetics on a Cp40-KKK immobilized chip (see detailed methods below). Similar results with regard to the intravitreal residence time and concentration levels of the test compounds were obtained regardless of the quantification method selected.
# To quantify the levels of all test compounds in vitreous samples collected at different time points following i.v.t. injection (see FIG. 15), WES analysis was performed on a WES instrument (ProteinSimple, San Jose, CA) using a 2 to 40 kDa Separation Module and Anti-Rabbit Detection Module according to the manufacturers' instructions. […] The resulting electropherograms were evaluated using the Compass software (ProteinSimple, San Jose, CA). The following criteria were used to discriminate low peptide signals from background: The peak signal-to-noise (S/N) ratio given by the software must be ≥10, and the peak height/baseline ratio (calculated manually from the peak height and baseline values given by the software) must be equal to or greater than 3. […] Shown in FIG. 15 is a representative standard curve generated using the WES system and bands obtained upon running pre-determined amounts of purified peptide spiked into rabbit vitreous samples. […]
# [4] = system: complement classical pathway; assay: Classical pathway activation (C3b deposition) ELISA in human plasma with or without rabbit vitreous; assay type: biochemical; settings: in the absence of vitreous
# Experimental: An alternative explanation to the one presented above is that the vitreous contains additional unidentified factors that associate with the Cp40-KKK analog. To investigate whether an unidentified vitreous factor impacts the complement inhibitory activity of lysine containing compounds, complement activation assays were performed using vitreous samples. Briefly, human plasma was incubated with OVA-anti-OVA immune-complexes in the presence of serial dilutions of the Cp40-based analogs mixed with rabbit vitreous. Levels of classical pathway activation (C3b deposition) were determined by ELISA using a polyclonal anti-human C3 antibody conjugated with HRP (MP Biomedicals, Solon, OH) (FIG. 20).
# physchem = settings: pH 7.4, Conc. (mg/ml), solubility in PBS
# human C3b = target: T1, human C3b (Homo sapiens, UniProt P01024); assay: SPR binding affinity and kinetic profile with immobilized C3b; settings: 25 °C
# T1 construct: purchased Complement Technology, Inc., Tyler, TX
# T1 sequence (P01024 23-667 limits assumed): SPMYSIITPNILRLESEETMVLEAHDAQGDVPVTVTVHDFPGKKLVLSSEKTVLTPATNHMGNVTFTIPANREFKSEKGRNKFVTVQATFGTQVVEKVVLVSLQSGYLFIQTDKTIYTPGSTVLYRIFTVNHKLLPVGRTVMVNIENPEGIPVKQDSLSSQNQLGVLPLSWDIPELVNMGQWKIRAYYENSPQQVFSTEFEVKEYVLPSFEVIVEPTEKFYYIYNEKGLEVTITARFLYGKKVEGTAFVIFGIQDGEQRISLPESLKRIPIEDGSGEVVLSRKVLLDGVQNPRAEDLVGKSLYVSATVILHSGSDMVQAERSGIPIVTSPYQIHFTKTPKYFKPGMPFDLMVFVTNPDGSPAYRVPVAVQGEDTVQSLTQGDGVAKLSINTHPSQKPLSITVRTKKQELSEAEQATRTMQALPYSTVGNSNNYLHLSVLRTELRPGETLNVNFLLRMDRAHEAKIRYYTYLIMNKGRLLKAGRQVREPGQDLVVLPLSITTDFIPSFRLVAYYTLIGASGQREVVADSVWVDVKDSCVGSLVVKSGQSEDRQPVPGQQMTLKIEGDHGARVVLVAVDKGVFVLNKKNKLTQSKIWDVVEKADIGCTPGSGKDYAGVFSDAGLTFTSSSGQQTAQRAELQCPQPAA
# T1 sequence (P01024 749-1663 partner limits assumed): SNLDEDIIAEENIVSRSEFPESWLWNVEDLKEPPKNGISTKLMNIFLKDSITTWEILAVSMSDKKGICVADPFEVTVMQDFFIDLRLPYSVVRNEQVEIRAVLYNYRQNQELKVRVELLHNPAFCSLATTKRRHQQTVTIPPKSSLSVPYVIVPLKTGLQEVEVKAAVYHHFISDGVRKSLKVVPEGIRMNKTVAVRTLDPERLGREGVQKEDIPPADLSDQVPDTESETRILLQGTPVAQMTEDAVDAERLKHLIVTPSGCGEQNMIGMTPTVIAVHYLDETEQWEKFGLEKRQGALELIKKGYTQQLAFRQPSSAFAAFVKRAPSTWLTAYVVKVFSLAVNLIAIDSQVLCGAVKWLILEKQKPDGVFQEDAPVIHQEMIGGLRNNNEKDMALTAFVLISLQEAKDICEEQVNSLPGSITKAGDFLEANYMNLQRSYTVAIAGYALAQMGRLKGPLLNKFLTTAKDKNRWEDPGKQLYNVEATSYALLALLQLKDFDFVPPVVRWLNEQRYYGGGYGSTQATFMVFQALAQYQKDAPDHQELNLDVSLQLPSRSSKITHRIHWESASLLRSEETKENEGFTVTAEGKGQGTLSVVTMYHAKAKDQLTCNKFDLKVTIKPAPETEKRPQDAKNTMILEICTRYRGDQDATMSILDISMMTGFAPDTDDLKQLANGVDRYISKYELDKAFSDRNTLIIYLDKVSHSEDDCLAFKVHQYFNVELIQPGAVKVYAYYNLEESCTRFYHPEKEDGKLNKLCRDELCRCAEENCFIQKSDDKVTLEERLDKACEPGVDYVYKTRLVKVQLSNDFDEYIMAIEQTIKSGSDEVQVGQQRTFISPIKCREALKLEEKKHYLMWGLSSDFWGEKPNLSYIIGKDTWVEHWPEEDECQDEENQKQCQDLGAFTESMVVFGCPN
# [5] = pH adjusted upon addition of PBS
smiles,measurement,setting,value
"CC[C@H](C)[C@H](NC(=O)[C@H](N)Cc1ccc(O)cc1)C(=O)N[C@H]1CSSC[C@@H](C(=O)N(C)[C@H](C(=O)N[C@@H](CCCCN)C(=O)N[C@@H](CCCCN)C(=O)N[C@@H](CCCCN)C(N)=O)[C@@H](C)CC)NC(=O)[C@H](CCCNC(=N)N)NC(=O)[C@H](Cc2c[nH]cn2)NC(=O)[C@H](C)NC(=O)CN(C)C(=O)[C@H](Cc2c[nH]c3ccccc23)NC(=O)[C@H](CC(=O)O)NC(=O)[C@H](CCC(N)=O)NC(=O)[C@H](Cc2cn(C)c3ccccc23)NC(=O)[C@H](C(C)C)NC1=O [Cp40-KKK, DTyr-Ile-[Cys-Val-Trp(Me)-Gln-Asp-Trp-Sar-Ala-His-Arg-Cys]-mlle-Lys-Lys-Lys—NH2]",in vivo Lys cleavage in plasma,[1]; after i.v. injection,metabolized into Cp40-KK and small amounts of Cp40-K
same,AUC(0-t),"[1]; cynomolgus monkey, plasma, iv, 2 mg/kg, single i.v. injection, read-out: AUC0-120h",304 to 312 µM·h
same,AUC0-120 h greater than Cp40-KK,[1]; single i.v. injection,over 3.5 fold
same,pH,after additional lyophilization from H2O,9.5
same,pH of the peptide solution in PBS,"at the stated concentration, indicator paper",8.5
same,Conc. (mg/ml) at which pH in the 7 range was observed,[5],7 mg/ml and 7.0 mg/ml
same,pH,[5],7.5*
same,Cp40-K fragment detectable in plasma,"[2]; 4 h after s.c. injection, one monkey",≤ 5 µM
same,in vivo Lys cleavage in plasma,"[2]; after s.c. injection, UPLC-ESI-MS","one or two Lys residues are cleaved from Cp40-KKK in NHP plasma, but not the third; also recorded: no Cp40 was detected in any of the plasma samples; also recorded: almost completely metabolized into Cp40-KK and small amounts of Cp40-K"
same,decreased CL/F compared to Cp40,[2]; single s.c. 2 mg/kg,~3 fold
same,higher cmax than Cp40,[2]; single s.c. 2 mg/kg,~2 fold
same,increased AUC0-t compared to Cp40,[2]; single s.c. 2 mg/kg,~2.6 fold
same,plasma concentration of uncleaved Cp40-KKK at any time point,"[2]; single s.c. 2 mg/kg, UPLC-ESI-MS, both animals",≤ 2000 nM
same,"CL/F, apparent clearance","[2]; single s.c. 2 mg/kg, SUM for Lys analogs, 2 mg/kg",2483 ((mg/kg)/(μM · h) and 2921 ((mg/kg)/(μM · h)
same,vitreous residence at C3 saturating levels,[3]; single i.v.t. 0.5 mg,≥ 90 days
same,detection in vitreous over time,"[3]; single i.v.t. 500 μg, days 14-90",detected even at day 90 post-treatment; also recorded: remained stable during the 73-day observation period
same,complement classical pathway inhibitory activity,[4],inhibitory activity in a dose-dependent manner
same,solubility,physchem,> 100 mg/mL
same,"kd, dissociation constant",human C3b; 1:1 Langmuir model,1.24 ± 0.42 10^−3s^−1
same,Kd,"human C3b; KD=kd/ka, read-out: KD, equilibrium dissociation constant",0.21 ± 0.09 nM
